From article PMC5218480 (PLoS ONE, 2017)

System: MV-4-11 cells
Assay: Gene expression microarray analysis (Affymetrix PrimeView) and GSEA
Assay type: cell-based, human
Parameters: RFU PODN (11730768_x_at) / Fold change /veh PODN (11730768_x_at) / RFU LINC00158 (11744669_a_at) / Fold change /veh LINC00158 (11744669_a_at) / RFU DUSP10 (11751237_a_at) / Fold change /veh DUSP10 (11751237_a_at) / RFU ID3 (11757404_x_at) / Fold change /veh ID3 (11757404_x_at) / RFU PLEKHG5 (11737974_s_at) / Fold change /veh PLEKHG5 (11737974_s_at) / RFU LRRC4B (11730491_at) / Fold change /veh LRRC4B (11730491_at) / RFU GIMAP4 (11747438_a_at) / Fold change /veh GIMAP4 (11747438_a_at) / RFU KRT8 (11758183_x_at) / Fold change /veh KRT8 (11758183_x_at) / RFU CNN1 (11734310_a_at) / Fold change /veh CNN1 (11734310_a_at) / RFU VPS37D (11726825_at) / Fold change /veh VPS37D (11726825_at) / RFU C10orf10 (11716522_x_at) / Fold change /veh C10orf10 (11716522_x_at) / RFU KIR2DL2 /// KIR2DL4 /// KIR2DL5A /// KIR2DL5B /// KIR2DS1 /// KIR2DS2 /// KIR2DS3 /// KIR2DS4 /// KIR3DL3 /// KIR3DL3 /// KIR3DS1 (11738374_at) / Fold change /veh KIR2DL2 /// KIR2DL4 /// KIR2DL5A /// KIR2DL5B /// KIR2DS1 /// KIR2DS2 /// KIR2DS3 /// KIR2DS4 /// KIR3DL3 /// KIR3DL3 /// KIR3DS1 (11738374_at) / RFU C1QL1 (11718748_at) / Fold change /veh C1QL1 (11718748_at) / RFU TMPRSS4 (11747572_a_at) / Fold change /veh TMPRSS4 (11747572_a_at) / RFU HAMP (11756126_x_at) / Fold change /veh HAMP (11756126_x_at) / RFU RNFT2 (11725882_a_at) / Fold change /veh RNFT2 (11725882_a_at) / RFU NR4A2 (11747474_a_at) / Fold change /veh NR4A2 (11747474_a_at) / RFU ABCC12 (11746883_a_at) / Fold change /veh ABCC12 (11746883_a_at) / RFU TMEM136 (11760407_x_at) / Fold change /veh TMEM136 (11760407_x_at) / RFU CLDN22 /// WWC2 (11732394_at) / Fold change /veh CLDN22 /// WWC2 (11732394_at) / RFU HLA-DPB1 (11760878_x_at) / Fold change /veh HLA-DPB1 (11760878_x_at) / RFU SPINT1 (11716480_a_at) / Fold change /veh SPINT1 (11716480_a_at) / RFU GAP43 (11754022_s_at) / Fold change /veh GAP43 (11754022_s_at) / RFU A4GNT (11735810_at) / Fold change /veh A4GNT (11735810_at) / RFU PRB3 (11715151_x_at) / Fold change /veh PRB3 (11715151_x_at) / RFU TUBB4B (11761932_at) / Fold change /veh TUBB4B (11761932_at) / RFU CAPN14 (11732068_a_at) / Fold change /veh CAPN14 (11732068_a_at) / RFU TMCC2 (11721928_a_at) / Fold change /veh TMCC2 (11721928_a_at) / RFU IRGQ (11745062_a_at) / Fold change /veh IRGQ (11745062_a_at) / RFU FAM174B (11720279_a_at) / Fold change /veh FAM174B (11720279_a_at) / RFU TMPRSS4 (11748680_a_at) / Fold change /veh TMPRSS4 (11748680_a_at) / RFU FAM212B (11763350_a_at) / Fold change /veh FAM212B (11763350_a_at) / RFU PLEKHG5 (11743358_a_at) / Fold change /veh PLEKHG5 (11743358_a_at) / RFU ZSCAN30 (11745921_a_at) / Fold change /veh ZSCAN30 (11745921_a_at) / RFU CMKLR1 (11741424_a_at) / Fold change /veh CMKLR1 (11741424_a_at) / RFU LOC101060620 /// MAPK8IP1 (11723275_at) / Fold change /veh LOC101060620 /// MAPK8IP1 (11723275_at) / RFU SPTSSB (11747773_x_at) / Fold change /veh SPTSSB (11747773_x_at) / RFU PRSS12 (11739890_at) / Fold change /veh PRSS12 (11739890_at) / RFU BIN1 (11741810_x_at) / Fold change /veh BIN1 (11741810_x_at) / RFU WNT11 (11732464_a_at) / Fold change /veh WNT11 (11732464_a_at) / RFU C10orf10 (11716521_a_at) / Fold change /veh C10orf10 (11716521_a_at) / RFU C5orf56 (11738089_at) / Fold change /veh C5orf56 (11738089_at) / RFU CYB561 (11721691_x_at) / Fold change /veh CYB561 (11721691_x_at) / RFU ANKRD19P (11752326_a_at) / Fold change /veh ANKRD19P (11752326_a_at) / RFU OR2T12 /// OR2T33 /// OR2T8 (11738714_s_at) / Fold change /veh OR2T12 /// OR2T33 /// OR2T8 (11738714_s_at) / RFU VCAN (11748164_a_at) / Fold change /veh VCAN (11748164_a_at) / RFU JSRP1 (11732532_at) / Fold change /veh JSRP1 (11732532_at) / RFU KRTAP10-11 (11738290_x_at) / Fold change /veh KRTAP10-11 (11738290_x_at) / RFU MYO3A (11730013_a_at) / Fold change /veh MYO3A (11730013_a_at) / RFU EBF3 (11725865_a_at) / Fold change /veh EBF3 (11725865_a_at) / RFU CAMK2N1 (11719241_x_at) / Fold change /veh CAMK2N1 (11719241_x_at) / RFU C5orf56 (11738088_a_at) / Fold change /veh C5orf56 (11738088_a_at) / RFU OLFML3 (11715873_a_at) / Fold change /veh OLFML3 (11715873_a_at) / RFU LOC100653217 /// NTM (11731650_a_at) / Fold change /veh LOC100653217 /// NTM (11731650_a_at) / RFU MAPK11 (11762145_a_at) / Fold change /veh MAPK11 (11762145_a_at) / RFU FIZ1 (11724087_x_at) / Fold change /veh FIZ1 (11724087_x_at) / RFU OASL (11726364_x_at) / Fold change /veh OASL (11726364_x_at) / RFU SOX15 (11748057_x_at) / Fold change /veh SOX15 (11748057_x_at) / RFU CD79A (11719716_a_at) / Fold change /veh CD79A (11719716_a_at) / RFU HIST1H1D (11736915_at) / Fold change /veh HIST1H1D (11736915_at) / RFU CASKIN2 (11723855_a_at) / Fold change /veh CASKIN2 (11723855_a_at) / RFU LOC730098 (11760151_x_at) / Fold change /veh LOC730098 (11760151_x_at) / RFU OR4N2 (11742367_at) / Fold change /veh OR4N2 (11742367_at) / RFU PRRT2 (11749266_a_at) / Fold change /veh PRRT2 (11749266_a_at) / RFU SNX32 (11753110_a_at) / Fold change /veh SNX32 (11753110_a_at) / RFU CDHR5 (11726645_a_at) / Fold change /veh CDHR5 (11726645_a_at) / RFU RCAN1 (11760418_a_at) / Fold change /veh RCAN1 (11760418_a_at) / RFU FAM167A (11723789_a_at) / Fold change /veh FAM167A (11723789_a_at) / RFU FAM26E (11764081_at) / Fold change /veh FAM26E (11764081_at) / RFU ISYNA1 (11749810_s_at) / Fold change /veh ISYNA1 (11749810_s_at) / RFU ACY1 (11761880_at) / Fold change /veh ACY1 (11761880_at) / RFU 11764098_at / Fold change /veh 11764098_at / RFU SAMD14 (11745864_x_at) / Fold change /veh SAMD14 (11745864_x_at) / RFU NPB (11741838_a_at) / Fold change /veh NPB (11741838_a_at) / RFU TMPRSS6 (11731388_a_at) / Fold change /veh TMPRSS6 (11731388_a_at) / RFU KRTAP10-2 (11738614_at) / Fold change /veh KRTAP10-2 (11738614_at) / RFU ARHGAP8 /// PRR5-ARHGAP8 (11727945_x_at) / Fold change /veh ARHGAP8 /// PRR5-ARHGAP8 (11727945_x_at) / RFU KRTAP5-7 /// NADSYN1 (11734609_at) / Fold change /veh KRTAP5-7 /// NADSYN1 (11734609_at) / RFU RASL12 (11751679_a_at) / Fold change /veh RASL12 (11751679_a_at) / RFU CDKN2B (11736163_a_at) / Fold change /veh CDKN2B (11736163_a_at) / RFU PRF1 (11729649_at) / Fold change /veh PRF1 (11729649_at) / RFU, ZNF638 /// ZNF638-IT1 / Fold change vs veh, ZNF638 /// ZNF638-IT1 / RFU, PANK3 / Fold change vs veh, PANK3 / RFU, SH3YL1 / Fold change vs veh, SH3YL1 / RFU, ZEB2 / Fold change vs veh, ZEB2 / RFU, NRIP1 / Fold change vs veh, NRIP1 / RFU, PTTG1IP / Fold change vs veh, PTTG1IP / RFU, CAPN2 / Fold change vs veh, CAPN2 / RFU, MED14 / Fold change vs veh, MED14 / RFU, SNORA58 / Fold change vs veh, SNORA58 / RFU, C1orf63 / Fold change vs veh, C1orf63 / RFU, LRRFIP1 / Fold change vs veh, LRRFIP1 / RFU, NDUFAF7 / Fold change vs veh, NDUFAF7 / RFU, SLC12A2 / Fold change vs veh, SLC12A2 / RFU, IBTK / Fold change vs veh, IBTK / RFU, ESF1 / Fold change vs veh, ESF1 / Fold change vs veh, TMEM50B / RFU, TAOK1 / Fold change vs veh, TAOK1 / RFU, ACBD3 / Fold change vs veh, ACBD3 / RFU, TMA16 / Fold change vs veh, TMA16 / RFU, RWDD3 / Fold change vs veh, RWDD3 / RFU, BCAT1 / Fold change vs veh, BCAT1 / RFU, EDEM3 / Fold change vs veh, EDEM3 / RFU, TMEM33 / Fold change vs veh, TMEM33 / RFU, WDR75 / Fold change vs veh, WDR75 / RFU, AHCTF1 / Fold change vs veh, AHCTF1 / RFU, TFRC / Fold change vs veh, TFRC / RFU, ZDHHC17 / Fold change vs veh, ZDHHC17 / RFU, NOM1 / Fold change vs veh, NOM1 / RFU, ARL8B / Fold change vs veh, ARL8B / RFU, ZBTB11 / Fold change vs veh, ZBTB11 / RFU, TAMM41 / Fold change vs veh, TAMM41 / RFU, KIAA1704 /// LOC100996395 / Fold change vs veh, KIAA1704 /// LOC100996395 / RFU, ING1 / Fold change vs veh, ING1 / RFU, TRMT61B / Fold change vs veh, TRMT61B / RFU, FUBP3 / Fold change vs veh, FUBP3 / RFU, TP53 / Fold change vs veh, TP53 / RFU, TNKS2 / Fold change vs veh, TNKS2 / RFU, ZFP14 / Fold change vs veh, ZFP14 / RFU, ACTR2 / Fold change vs veh, ACTR2 / RFU, PPP3R1 / Fold change vs veh, PPP3R1 / RFU, PIK3R1 / Fold change vs veh, PIK3R1 / RFU, HNRNPA1 / Fold change vs veh, HNRNPA1 / RFU, RNF170 / Fold change vs veh, RNF170 / RFU, ZNF28 / Fold change vs veh, ZNF28 / RFU, RNGTT / Fold change vs veh, RNGTT / RFU, OGT / Fold change vs veh, OGT / RFU, BRD1 / Fold change vs veh, BRD1 / RFU, MARS / Fold change vs veh, MARS / RFU, ZNF655 / Fold change vs veh, ZNF655 / RFU, FAHD1 / Fold change vs veh, FAHD1 / RFU, BDP1 / Fold change vs veh, BDP1 / RFU, LRRCC1 / Fold change vs veh, LRRCC1 / RFU, ARID1A / Fold change vs veh, ARID1A / RFU, ZNF146 / Fold change vs veh, ZNF146 / RFU, ZNF330 / Fold change vs veh, ZNF330 / RFU, GPN3 / Fold change vs veh, GPN3 / RFU, C9orf123 / Fold change vs veh, C9orf123 / RFU, N4BP2L2 / Fold change vs veh, N4BP2L2 / RFU, ARFIP1 / Fold change vs veh, ARFIP1 / RFU, FAM179B / Fold change vs veh, FAM179B / RFU, BCL10 / Fold change vs veh, BCL10 / RFU, UHRF1BP1L / Fold change vs veh, UHRF1BP1L / RFU, BET1 / Fold change vs veh, BET1 / RFU, CNOT2 / Fold change vs veh, CNOT2 / RFU, ZNF268 / Fold change vs veh, ZNF268 / Fold change vs veh, ZNF507 / RFU, DGCR2 / Fold change vs veh, DGCR2 / RFU, WDSUB1 / Fold change vs veh, WDSUB1 / Fold change vs veh, HSP90B1 /// MIR3652 / RFU, ADSS / Fold change vs veh, ADSS / RFU, GK / Fold change vs veh, GK / RFU, ZNF148 / Fold change vs veh, ZNF148 / RFU, TAF9 / Fold change vs veh, TAF9 / RFU, SLC1A5 / Fold change vs veh, SLC1A5 / RFU, SLMO2 / Fold change vs veh, SLMO2 / RFU, ABCC4 / Fold change vs veh, ABCC4 / RFU, LOC101060439 /// RAP1B / Fold change vs veh, LOC101060439 /// RAP1B / RFU, RFX7 / Fold change vs veh, RFX7 / RFU, GTPBP10 / Fold change vs veh, GTPBP10 / RFU, CNEP1R1 / Fold change vs veh, CNEP1R1 / RFU, BIVM-ERCC5 /// ERCC5 / Fold change vs veh, BIVM-ERCC5 /// ERCC5 / RFU, ILF3 / Fold change vs veh, ILF3 / RFU 11762660_at / Fold change /veh 11762660_at / RFU VCAN (11757783_s_at) / Fold change /veh VCAN (11757783_s_at) / RFU DDX43 (11728927_at) / Fold change /veh DDX43 (11728927_at) / RFU KRT8 (11758188_x_at) / Fold change /veh KRT8 (11758188_x_at) / RFU NKD1 (11759106_at) / Fold change /veh NKD1 (11759106_at) / RFU SRD5A1 (11742802_a_at) / Fold change /veh SRD5A1 (11742802_a_at) / RFU TPSAB1 /// TPSB2 (11721975_s_at) / Fold change /veh TPSAB1 /// TPSB2 (11721975_s_at) / RFU GSTM3 (11746129_a_at) / Fold change /veh GSTM3 (11746129_a_at) / RFU IL23R (11737362_x_at) / Fold change /veh IL23R (11737362_x_at) / RFU TMEM51 (11727254_a_at) / Fold change /veh TMEM51 (11727254_a_at) / RFU PIWIL2 (11732686_x_at) / Fold change /veh PIWIL2 (11732686_x_at) / RFU ORM1 (11744905_x_at) / Fold change /veh ORM1 (11744905_x_at) / RFU CCDC152 (11743942_at) / Fold change /veh CCDC152 (11743942_at) / RFU ECM1 (11717891_a_at) / Fold change /veh ECM1 (11717891_a_at) / RFU IL23R (11748794_a_at) / Fold change /veh IL23R (11748794_a_at) / RFU TNFAIP8L3 (11732012_x_at) / Fold change /veh TNFAIP8L3 (11732012_x_at) / RFU MBOAT4 (11741988_at) / Fold change /veh MBOAT4 (11741988_at) / RFU 11764193_at / Fold change /veh 11764193_at / RFU TMEM53 (11763286_at) / Fold change /veh TMEM53 (11763286_at) / RFU MAGEB2 (11727129_at) / Fold change /veh MAGEB2 (11727129_at) / RFU TMEM200A (11744735_a_at) / Fold change /veh TMEM200A (11744735_a_at) / RFU CCDC152 (11751479_a_at) / Fold change /veh CCDC152 (11751479_a_at) / RFU FAM211A (11726209_a_at) / Fold change /veh FAM211A (11726209_a_at) / RFU RGS16 (11746705_a_at) / Fold change /veh RGS16 (11746705_a_at) / RFU VCAN (11755009_s_at) / Fold change /veh VCAN (11755009_s_at) / RFU RHOB (11743442_s_at) / Fold change /veh RHOB (11743442_s_at) / RFU RGS16 (11720943_a_at) / Fold change /veh RGS16 (11720943_a_at) / RFU RGS16 (11720944_at) / Fold change /veh RGS16 (11720944_at) / RFU, VPS4B / Fold change vs veh, VPS4B / RFU, CREB1 / Fold change vs veh, CREB1 / RFU, DNAJC13 / Fold change vs veh, DNAJC13 / RFU, GNAQ / Fold change vs veh, GNAQ / RFU, CDK5R1 / Fold change vs veh, CDK5R1 / RFU, ZRANB3 / Fold change vs veh, ZRANB3 / RFU, CUL4A / Fold change vs veh, CUL4A / RFU, CCNY / Fold change vs veh, CCNY / RFU, UFL1 / Fold change vs veh, UFL1 / RFU, COG3 / Fold change vs veh, COG3 / RFU, DIAPH2 / Fold change vs veh, DIAPH2 / RFU, SKA2 / Fold change vs veh, SKA2 / RFU, AFF3 / Fold change vs veh, AFF3 / RFU, LMF1 / Fold change vs veh, LMF1 / RFU, IPO11 / Fold change vs veh, IPO11 / RFU, DFFB / Fold change vs veh, DFFB / RFU, FOXP1 / Fold change vs veh, FOXP1 / RFU, CARD8 / Fold change vs veh, CARD8 / RFU, STRN3 / Fold change vs veh, STRN3 / RFU, ADK / Fold change vs veh, ADK / RFU, RASSF2 / Fold change vs veh, RASSF2 / RFU, WIPF1 / Fold change vs veh, WIPF1 / RFU, LARP1B / Fold change vs veh, LARP1B / RFU, RASA1 / Fold change vs veh, RASA1 / RFU, RB1 / Fold change vs veh, RB1 / RFU, PPFIA1 / Fold change vs veh, PPFIA1 / RFU, MAT2A / Fold change vs veh, MAT2A / RFU, CCT5 / Fold change vs veh, CCT5 / RFU, WDR92 / Fold change vs veh, WDR92 / RFU, CUX1 / Fold change vs veh, CUX1 / RFU, TTC7A / Fold change vs veh, TTC7A / RFU, TMEM135 / Fold change vs veh, TMEM135 / RFU, DEPTOR / Fold change vs veh, DEPTOR / RFU, CPM / Fold change vs veh, CPM / RFU, DNAJB6 / Fold change vs veh, DNAJB6 / RFU, CACNA2D3 / Fold change vs veh, CACNA2D3 / RFU, DTX4 / Fold change vs veh, DTX4 / RFU, TFCP2 / Fold change vs veh, TFCP2 / RFU, GMCL1 /// GMCL1P1 / Fold change vs veh, GMCL1 /// GMCL1P1 / RFU, AEBP2 / Fold change vs veh, AEBP2 / RFU, SNHG1 /// SNORD22 /// SNORD25 /// SNORD26 /// SNORD27 /// SNORD28 /// SNORD29 /// SNORD31 / Fold change vs veh, SNHG1 /// SNORD22 /// SNORD25 /// SNORD26 /// SNORD27 /// SNORD28 /// SNORD29 /// SNORD31 / Fold change (Aza/veh), C12orf56 (ProbeSet 11735607_a_at) / Fold change (ACY-1035/veh), C12orf56 (ProbeSet 11735607_a_at) / Fold change (Aza/veh), FGFR1OP (ProbeSet 11751329_s_at) / Fold change (ACY-1035/veh), FGFR1OP (ProbeSet 11751329_s_at) / Fold change (Aza/veh), VPS36 (ProbeSet 11739960_a_at) / Fold change (ACY-1035/veh), VPS36 (ProbeSet 11739960_a_at) / RFU SYPL1 (11715823_x_at) / Fold change /veh SYPL1 (11715823_x_at) / RFU IGFBP7 (11715501_s_at) / Fold change /veh IGFBP7 (11715501_s_at) / RFU REEP3 (11722064_at) / Fold change /veh REEP3 (11722064_at) / RFU IGLL1 (11728026_x_at) / Fold change /veh IGLL1 (11728026_x_at): dose or concentration left out as unconfirmed
Conditions: MV-4-11 cells, 48 hours

Nc1ccc(-c2cccs2)cc1NC(=O)c1ccc2c(c1)cc(C1CC1)n2CCN1CCOCC1 [ACY-1035]
Fold change /veh RGS16 (11746705_a_at): 1.06
